Tests used:
SaOS-2 = assay: Effect of APR-246 on cell viability in cancer cell lines; format: cell-based; conditions: Homo sapiens, Osteosarcoma SaOS-2, mean±SD
Description: (§1) The therapeutic activity of the compound 2-(hydroxymethyl)-2-(methoxymethyl)-quinuclidin-3-one (herein also referred to as APR-246) in the treatment of various cancers has been shown by in vitro assays using various cancer cell lines, cf. Table 2, wherein the IC50 of APR-246 in various types of cancerous cells is shown.
(§2) In Table 2, the results are shown as mean±SD; the IC50 values are calculated as the average of the IC50 values in the individual experiments.

H1299 = assay: as above; format: cell-based; conditions: Homo sapiens, NCI-H1299, Non-small cell lung carcinoma H1299, mean±SD
Description: as §1, §2

PC3-175 = assay: as above; format: cell-based; conditions: Prostate adenocarcinoma PC3-175, mean±SD
Description: as §1, §2

HT-29 = assay: as above; format: cell-based; conditions: Homo sapiens, Colorectal adenocarcinoma HT-29, mean±SD
Description: as §1, §2

MCF-7 = assay: as above; format: cell-based; conditions: Homo sapiens, MCF7, Breast adenocarcinoma MCF-7, mean±SD
Description: as §1, §2

MDA-MB-231 = assay: as above; format: cell-based; conditions: Homo sapiens, Breast adenocarcinoma MDA-MB-231, mean±SD
Description: as §1, §2

SaOS-2-His273 = assay: as above; format: cell-based; conditions: Osteosarcoma SaOS-2-His273, mean±SD
Description: as §1, §2

BT-474 = assay: as above; format: cell-based; conditions: Homo sapiens, Breast ductal carcinoma BT-474, mean±SD
Description: as §1, §2

PC3-puro = assay: as above; format: cell-based; conditions: Prostate adenocarcinoma PC3-puro, mean±SD
Description: as §1, §2

22Rv1 = assay: as above; format: cell-based; conditions: Homo sapiens, Prostate carcinoma 22Rv1, mean±SD
Description: as §1, §2

KBM3 = assay: as above; format: cell-based; conditions: Acute Myelomonocytic Leukaemia KBM3, mean±SD
Description: as §1, §2

U-2OS = assay: as above; format: cell-based; conditions: Homo sapiens, U2OS, Osteosarcoma U-2OS, mean±SD
Description: as §1, §2

H1299-His175 = assay: as above; format: cell-based; conditions: Non-small cell lung carcinoma H1299-His175, mean±SD
Description: as §1, §2

AML MV-4-11 cells = assay: Hollow fiber in vivo mouse model; conditions: AML MV-4-11 cells in hollow fibers in mice; end of the experiment; by number
Description: Data is shown as mean±SEM (n=7-8).
Furthermore, in vivo experiments using the hollow fiber mouse model with 2-(hydroxymethyl)-2-(methoxymethyl)quinuclidin-3-one indicate that inventive compounds have a significant anti-leukemic effect. These experiments were performed using the hollow fiber in vivo mouse model (for a short description of the model, cf. the internet website http://dtp.nci.nih.gov/timeline/noflash/milestones/M13_hollow_fiber.htm).

[1] = Solubility and pH of APR-246 in water solutions; format: physicochemical
[2] = Stability studies of APR-246 in an aqueous system at different pH; format: physicochemical
Description: Several aqueous formulations of APR-246 and of the hydrochloric acid addition salt of APR-246 were prepared and tested for stability.
The stability increases with decreased pH. To establish a suitable pH for APR-246 with respect to stability, studies with the drug substance in different solutions at different pH were performed.
(§3) HPLC—Chromatography was performed on an Agilent 1100/1200 series HPLC system using a Purospher Star RP-18e, 5 μm (250×4.6) mm Column at 20° C. Sample temperature was set to 5° C. by a thermostat. Detection was accomplished by means of a UV/VIS DAD detector at 210 nm. The flow rate was set to 1.0 mL/min and the injection volume was 10 μL. The mobile phase used was a gradient of phosphate buffer (A) in acetonitrile (B): 0-5 min: 90% A, 5-20 min: 70% A, 20-35 min: 20% A, 35-45 min: 90% A. The calibration was obtained using pure APR-246 standard solutions freshly prepared prior to analyses. Data acquisition was performed electronically. The method has been validated.

[3] = HPLC-UV before and after autoclaving of APR-246 solution; format: physicochemical; conditions: autoclaving at 121° C.
Description: as §3, with “validated. The APR-246 drug product was a sterile concentrate for solution for infusion. The solution was sterilised by filtration according to Ph Eur standard method and aseptically filled in vials.” for “validated.”

[4] = Long term stability studies of APR-246 in aqueous system; format: physicochemical
Description: as §3, with “APR-246 stock solutions were manufactured at a concentration of about 150 mg/mL at pH 3.9. The finished product consisted of 21.5-22.0 mL of drug product aseptically filled into presterilized 50 mL glass vials. The manufacturing was in compliance with Good Manufacturing Practices regulations. […] HPLC—Chromatography” for “HPLC—Chromatography”

[5] = Infusion bag compatibility study; format: physicochemical
Description: as §3, with “validated. This example summarizes the results of a compatibility study of the APR-246 drug product (150 mg/mL stock solution) in six infusion bags, to confirm physical and chemical stability of the drug product in the NaCl solution and compatibility with infusion bags and tubing device material. The drug product should be diluted with sterile 0.9% NaCl solution for infusion to a total volume of 500 ml before administration. The duration of the study covers a period beyond finalisation of infusion to the patient. The study was designed for a worst case lowest dose of 0.15 mg/mL and for a worst case highest dose of 24 mg/mL. […]” for “validated.”

IC50 (SaOS-2): 27 ± 5 µM
IC50 (H1299): 16 ± 7 µM
IC50 (PC3-175): 23 ± 7 µM
IC50 (HT-29): 25 ± 5 µM
IC50 (MCF-7): 15 ± 1 µM
IC50 (MDA-MB-231): 18 ± 5 µM
IC50 (SaOS-2-His273): 14 ± 3 µM
IC50 (BT-474): 3000 ± 2000 nM
IC50 (PC3-puro): 27 ± 3 µM
IC50 (22Rv1): 10 ± 0.6 µM
IC50 (KBM3): 7 ± 1 µM
IC50 (U-2OS): 15 ± 4 µM
IC50 (H1299-His175): 14 ± 8 µM
solubility in water solutions [1]: readily soluble
stability of formulations with pH above 6 ([2]; pH above 6, model systems of Table 3): stability problems
degradation in aqueous solutions ([2]; room temperature and lower temperatures, regardless of the concentration profile): suffered from degradation
degradation on autoclaving the solution in the final container [3]: degradation was too pronounced
long term stability in the inventive formulation ([4]; formulated for clinical use, about 150 mg/mL, pH 3.9): stable
expected degradation on storage ([4]; over a period of two years, stored at 2-8° C.): no significant degradation
stability in infusion bag over the range of the study ([5]; high concentration): satisfactory stability
stability in infusion bag over the range of the study ([5]; low concentration): satisfactory stability
SMILES: COCC1(CO)C(=O)C2CCN1CC2 (stereo not shown) [APR-246, 2-(hydroxymethyl)-2-(methoxymethyl)quinuclidin-3-one]
net growth of leukemic cells (AML MV-4-11 cells): about −25%

Reference: patent publication US9061016B2, “Aqueous solution comprising 3-quinuclidinones for the treatment hyperproliferative, autoimmune and heart disease” (APREA AB, priority 2010, dated 2015)
